Laboratory results published in patent US9359352B2, “Substituted benzimidazoles as PI3 kinase inhibitors” (Intellikine LLC, priority 2010, dated 2016).

Columns and labels:
Type in all cases: biochemical
[1] = biological target: T1, mTOR C (Homo sapiens, UniProt P42345); assay: mTOR kinase inhibition assay (mTORC IC50); conditions: in vitro
T1 construct: purchased Invitrogen
Procedure: The cross-activity or lack thereof of one or more compounds of the present invention against mTor can be measured according to any procedures known in the art or methods disclosed below. The compounds described herein can be tested against recombinant mTOR (Invitrogen) in an assay containing 50 mM HEPES, pH 7.5, 1 mM EGTA, 10 mM MgCl2, 2.5 mM, 0.01% Tween, 10 μM ATP (2.5 μCi of […]), and 3 μg/mL BSA. Rat recombinant PHAS-1/4EBP1 (Calbiochem; 2 mg/mL) is used as a substrate. Reactions are terminated by spotting onto nitrocellulose, which is washed with 1M NaCl/1% phosphoric acid (approximately 6 times, 5-10 minutes each). Sheets are dried and the transferred radioactivity quantitated by phosphorimaging.
Other kits or systems for assaying mTOR activity are commercially available. For instance, one can use Invitrogen's LanthaScreen™ Kinase assay to test the inhibitors of mTOR disclosed herein. This assay is a time resolved FRET platform that measures the phosphorylation of GFP labeled 4EBP1 by mTOR kinase. The kinase reaction is performed in a white 384 well microtitre plate. The total reaction volume is 20 ul per well and the reaction buffer composition is 50 mM HEPES pH7.5, 0.01% Polysorbate 20, 1 mM EGTA, 10 mM MnCl2, and 2 mM DTT. In the first step, each well receives 2 ul of test compound in 20% dimethylsulphoxide resulting in a 2% DMSO final concentration. Next, 8 ul of mTOR diluted in reaction buffer is added per well for a 60 ng/ml final concentration. To start the reaction, 10 ul of an ATP/GFP-4EBP1 mixture (diluted in reaction buffer) is added per well for a final concentration of 10 μM ATP and 0.5 μM GFP-4EBP1. The plate is sealed and incubated for 1 hour at room temperature. The reaction is stopped by adding 10 ul per well of a Tb-anti-pT46 4EBP1 antibody/EDTA mixture (diluted in TR-FRET buffer) for a final concentration of 1.3 nM antibody and 6.7 mM EDTA. The plate is sealed, incubated for 1 hour at room temperature, and then read on a plate reader set up for LanthaScreen™ TR-FRET. Data is analyzed and IC50s are generated using GraphPad Prism 5.

[2] = biological target: T2, PI3K γ (Homo sapiens, UniProt P48736); assay: PI 3-Kinase HTRF inhibition assay, PI3K γ; conditions: in vitro
T2 construct: purchased Upstate

[3] = biological target: T3, PI3K β (Homo sapiens, UniProt P42338); assay: PI 3-Kinase HTRF inhibition assay, PI3K β; conditions: in vitro
T3 construct: purchased Upstate
Procedure: (§1) Commercial kits or systems for assaying PI3-K activities are available. The commercially available kits or systems can be used to screen for inhibitors and/or agonists of PI3-Ks including but not limited to PI 3-Kinase α, β, δ, and γ. An exemplary system is PI 3-Kinase (human) HTRF™ Assay from Upstate. […] Briefly, the assay is a time resolved FRET assay that indirectly measures PIP3 product formed by the activity of a PI3-K. The kinase reaction is performed in a microtitre plate (e.g., a 384 well microtitre plate). The total reaction volume is approximately 20 ul per well. In the first step, each well receives 2 ul of test compound in 20% dimethylsulphoxide resulting in a 2% DMSO final concentration. Next, approximately 14.5 ul of a kinase/PIP2 mixture (diluted in 1× reaction buffer) is added per well for a final concentration of 0.25-0.3 ug/ml kinase and 10 μM PIP2. The plate is scaled and incubated for 15 minutes at room temperature. To start the reaction, 3.5 ul of ATP (diluted in 1× reaction buffer) is added per well for a final concentration of 10 μM ATP. The plate is sealed and incubated for 1 hour at room temperature. The reaction is stopped by adding 5 ul of Stop Solution per well and then 5 ul of Detection Mix is added per well. The plate is sealed, incubated for 1 hour at room temperature, and then read on an appropriate plate reader. Data is analyzed and IC50s are generated using GraphPad Prism 5. For PI3K α, β, δ, and γ, the nM concentration of inhibitor to reach IC50 is provided. […] Similar assays, and others known in the art, can be used to measure the percent inhibition of other kinases, including but not limited to PI3K class II kinases, phosphoinositide 4 kinases (PI4K), and phosphoinositide 5 kinases (PI5K).

[4] = biological target: T4, PI3K δ (Homo sapiens, UniProt O00329); assay: PI 3-Kinase HTRF inhibition assay, PI3K δ; conditions: in vitro; read-out: PI3K δ IC50
T4 construct: purchased Upstate
Procedure: as §1

[5] = biological target: T5, PI3K α (Homo sapiens, UniProt P42336); assay: PI 3-Kinase HTRF inhibition assay, PI3K α; conditions: in vitro; read-out: PI3K α IC50
T5 construct: purchased Upstate
Procedure: as §1

T2 sequence (P48736 whole entry): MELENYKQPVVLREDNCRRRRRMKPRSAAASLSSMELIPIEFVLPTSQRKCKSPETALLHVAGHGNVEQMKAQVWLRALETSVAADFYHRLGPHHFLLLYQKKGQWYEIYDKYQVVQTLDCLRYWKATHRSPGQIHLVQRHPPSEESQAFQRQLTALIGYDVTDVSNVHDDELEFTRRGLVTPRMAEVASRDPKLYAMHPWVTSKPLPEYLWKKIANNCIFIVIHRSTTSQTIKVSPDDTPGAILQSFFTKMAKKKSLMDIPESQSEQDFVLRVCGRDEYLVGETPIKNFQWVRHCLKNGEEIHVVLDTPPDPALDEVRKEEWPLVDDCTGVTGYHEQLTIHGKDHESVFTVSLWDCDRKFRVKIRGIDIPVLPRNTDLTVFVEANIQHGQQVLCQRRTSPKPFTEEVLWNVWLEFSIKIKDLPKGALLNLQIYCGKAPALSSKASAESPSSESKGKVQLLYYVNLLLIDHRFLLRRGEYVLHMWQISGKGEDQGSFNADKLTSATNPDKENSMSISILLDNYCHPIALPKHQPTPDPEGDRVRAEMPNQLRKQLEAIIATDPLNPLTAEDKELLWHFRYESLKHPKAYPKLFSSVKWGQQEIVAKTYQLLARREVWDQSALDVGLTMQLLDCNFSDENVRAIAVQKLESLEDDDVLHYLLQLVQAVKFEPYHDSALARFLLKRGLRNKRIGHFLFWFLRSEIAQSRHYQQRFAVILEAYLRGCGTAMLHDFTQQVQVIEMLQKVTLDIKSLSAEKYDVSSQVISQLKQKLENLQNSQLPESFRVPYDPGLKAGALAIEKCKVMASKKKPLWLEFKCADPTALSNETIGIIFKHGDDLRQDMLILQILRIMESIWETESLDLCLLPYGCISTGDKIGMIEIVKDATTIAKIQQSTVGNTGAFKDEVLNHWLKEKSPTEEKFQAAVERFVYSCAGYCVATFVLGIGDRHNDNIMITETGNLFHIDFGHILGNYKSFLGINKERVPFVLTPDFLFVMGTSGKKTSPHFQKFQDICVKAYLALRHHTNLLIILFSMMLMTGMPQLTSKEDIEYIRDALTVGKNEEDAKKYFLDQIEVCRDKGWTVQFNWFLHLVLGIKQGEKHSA
T4 sequence (O00329 whole entry): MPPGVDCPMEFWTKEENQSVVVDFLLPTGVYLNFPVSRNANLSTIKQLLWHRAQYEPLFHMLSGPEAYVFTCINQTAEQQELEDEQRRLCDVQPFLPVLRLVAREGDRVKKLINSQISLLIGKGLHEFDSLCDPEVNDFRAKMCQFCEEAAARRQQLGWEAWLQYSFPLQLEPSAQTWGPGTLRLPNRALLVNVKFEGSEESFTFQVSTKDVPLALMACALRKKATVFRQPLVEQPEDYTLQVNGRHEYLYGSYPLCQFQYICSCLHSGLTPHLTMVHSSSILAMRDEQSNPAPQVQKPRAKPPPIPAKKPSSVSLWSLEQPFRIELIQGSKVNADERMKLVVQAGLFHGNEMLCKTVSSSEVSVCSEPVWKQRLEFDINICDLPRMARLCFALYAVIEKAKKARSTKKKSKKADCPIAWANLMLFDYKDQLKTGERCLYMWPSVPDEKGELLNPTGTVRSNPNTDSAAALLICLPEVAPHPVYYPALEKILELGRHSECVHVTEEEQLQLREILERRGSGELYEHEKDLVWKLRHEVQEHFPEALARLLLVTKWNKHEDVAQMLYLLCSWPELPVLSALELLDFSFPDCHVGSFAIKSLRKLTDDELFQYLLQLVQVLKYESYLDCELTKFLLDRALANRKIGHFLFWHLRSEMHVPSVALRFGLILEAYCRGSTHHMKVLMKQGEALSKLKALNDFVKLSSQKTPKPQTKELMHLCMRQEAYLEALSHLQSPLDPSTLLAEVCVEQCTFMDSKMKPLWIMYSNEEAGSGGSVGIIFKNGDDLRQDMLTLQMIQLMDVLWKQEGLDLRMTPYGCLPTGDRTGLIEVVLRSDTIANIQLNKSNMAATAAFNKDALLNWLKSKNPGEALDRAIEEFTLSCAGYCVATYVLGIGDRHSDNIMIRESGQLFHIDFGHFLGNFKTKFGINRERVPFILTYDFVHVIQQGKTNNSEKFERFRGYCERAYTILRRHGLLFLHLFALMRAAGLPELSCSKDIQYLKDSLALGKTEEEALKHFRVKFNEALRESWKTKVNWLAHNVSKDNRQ
T4 sequence (P27986 whole entry partner): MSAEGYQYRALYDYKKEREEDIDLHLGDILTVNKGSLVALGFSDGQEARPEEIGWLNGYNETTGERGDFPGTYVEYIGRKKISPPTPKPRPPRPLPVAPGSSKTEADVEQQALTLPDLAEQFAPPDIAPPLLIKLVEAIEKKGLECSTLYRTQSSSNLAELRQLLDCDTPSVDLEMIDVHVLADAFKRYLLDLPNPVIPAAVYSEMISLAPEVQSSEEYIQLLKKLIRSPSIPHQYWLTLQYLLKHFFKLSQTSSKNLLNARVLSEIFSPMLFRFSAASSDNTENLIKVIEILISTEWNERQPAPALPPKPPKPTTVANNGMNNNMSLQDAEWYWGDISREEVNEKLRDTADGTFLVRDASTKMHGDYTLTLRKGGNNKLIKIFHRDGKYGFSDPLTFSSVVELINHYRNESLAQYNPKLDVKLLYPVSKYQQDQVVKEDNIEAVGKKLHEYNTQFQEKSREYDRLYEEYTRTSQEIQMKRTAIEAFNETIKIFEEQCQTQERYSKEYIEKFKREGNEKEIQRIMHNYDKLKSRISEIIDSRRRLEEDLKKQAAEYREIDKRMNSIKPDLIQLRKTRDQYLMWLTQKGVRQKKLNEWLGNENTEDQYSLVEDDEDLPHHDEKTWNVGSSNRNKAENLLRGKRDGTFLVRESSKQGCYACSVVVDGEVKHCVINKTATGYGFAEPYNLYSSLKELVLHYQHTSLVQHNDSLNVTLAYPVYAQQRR
T5 sequence (P42336 whole entry): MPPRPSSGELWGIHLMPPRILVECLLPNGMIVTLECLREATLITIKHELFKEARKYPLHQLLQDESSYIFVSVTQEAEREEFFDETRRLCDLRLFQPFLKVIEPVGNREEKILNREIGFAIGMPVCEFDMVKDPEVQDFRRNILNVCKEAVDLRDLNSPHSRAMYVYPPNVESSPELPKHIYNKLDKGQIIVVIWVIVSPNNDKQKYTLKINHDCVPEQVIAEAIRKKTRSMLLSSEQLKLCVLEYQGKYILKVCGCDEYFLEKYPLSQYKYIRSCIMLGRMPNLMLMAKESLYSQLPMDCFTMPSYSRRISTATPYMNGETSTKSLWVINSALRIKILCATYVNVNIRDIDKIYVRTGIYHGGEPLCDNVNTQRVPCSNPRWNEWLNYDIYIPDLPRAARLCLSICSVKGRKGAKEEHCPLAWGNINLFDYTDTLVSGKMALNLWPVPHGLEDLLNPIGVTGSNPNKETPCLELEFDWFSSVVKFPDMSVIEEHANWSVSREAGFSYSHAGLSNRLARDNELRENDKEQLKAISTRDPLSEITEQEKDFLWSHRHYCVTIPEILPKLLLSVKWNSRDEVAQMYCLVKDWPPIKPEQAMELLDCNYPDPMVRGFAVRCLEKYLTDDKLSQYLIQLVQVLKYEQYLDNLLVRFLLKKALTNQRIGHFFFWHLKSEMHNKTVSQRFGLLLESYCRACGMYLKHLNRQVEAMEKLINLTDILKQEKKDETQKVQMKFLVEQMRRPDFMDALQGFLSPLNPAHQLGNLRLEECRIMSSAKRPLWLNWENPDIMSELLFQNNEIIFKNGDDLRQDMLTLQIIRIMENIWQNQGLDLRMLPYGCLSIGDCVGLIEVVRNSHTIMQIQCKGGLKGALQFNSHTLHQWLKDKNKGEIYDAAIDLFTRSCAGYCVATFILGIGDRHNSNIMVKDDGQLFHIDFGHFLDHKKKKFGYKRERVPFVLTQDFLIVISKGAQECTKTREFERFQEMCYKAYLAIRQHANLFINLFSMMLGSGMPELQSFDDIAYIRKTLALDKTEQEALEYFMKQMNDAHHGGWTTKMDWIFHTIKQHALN
T5 sequence (P27986 whole entry partner): as the sequence (P27986 whole entry partner) above
T3 sequence (P42338 whole entry): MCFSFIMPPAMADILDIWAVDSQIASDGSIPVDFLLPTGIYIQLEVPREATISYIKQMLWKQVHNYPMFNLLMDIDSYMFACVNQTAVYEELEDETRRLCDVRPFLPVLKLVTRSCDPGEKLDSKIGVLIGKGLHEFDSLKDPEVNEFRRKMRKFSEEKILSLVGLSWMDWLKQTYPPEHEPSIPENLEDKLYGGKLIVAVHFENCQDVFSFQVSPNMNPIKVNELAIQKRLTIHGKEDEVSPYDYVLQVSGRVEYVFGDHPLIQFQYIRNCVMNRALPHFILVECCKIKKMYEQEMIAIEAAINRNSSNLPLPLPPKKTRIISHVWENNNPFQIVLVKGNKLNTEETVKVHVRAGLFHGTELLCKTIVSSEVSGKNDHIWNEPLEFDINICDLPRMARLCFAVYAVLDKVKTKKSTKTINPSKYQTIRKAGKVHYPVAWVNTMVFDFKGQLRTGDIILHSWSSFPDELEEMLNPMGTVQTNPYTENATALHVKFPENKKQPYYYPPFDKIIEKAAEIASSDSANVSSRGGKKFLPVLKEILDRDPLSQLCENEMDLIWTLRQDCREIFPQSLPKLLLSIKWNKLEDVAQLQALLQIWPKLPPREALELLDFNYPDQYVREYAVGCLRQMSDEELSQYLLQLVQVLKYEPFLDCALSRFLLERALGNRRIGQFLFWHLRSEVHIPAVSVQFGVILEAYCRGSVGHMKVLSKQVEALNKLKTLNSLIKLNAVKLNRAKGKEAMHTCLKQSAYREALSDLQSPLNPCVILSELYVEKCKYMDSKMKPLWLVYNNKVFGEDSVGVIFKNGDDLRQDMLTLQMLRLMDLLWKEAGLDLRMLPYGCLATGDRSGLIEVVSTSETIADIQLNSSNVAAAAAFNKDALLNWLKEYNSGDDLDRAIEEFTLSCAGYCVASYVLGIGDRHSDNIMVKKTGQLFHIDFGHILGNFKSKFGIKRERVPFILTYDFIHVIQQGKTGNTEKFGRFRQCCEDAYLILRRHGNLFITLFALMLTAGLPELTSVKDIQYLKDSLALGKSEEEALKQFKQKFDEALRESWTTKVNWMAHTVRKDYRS
T3 sequence (P27986 whole entry partner): as the sequence (P27986 whole entry partner) above

| Structure (SMILES) | IC50 [1] [µM] | IC50 [2] [µM] | IC50 [3] [µM] | IC50 [4] [µM] | IC50 [5] [µM] |
| --- | --- | --- | --- | --- | --- |
| CN1CC2CN(c3cnc4ccc(-c5ccc6oc(N)nc6c5)nc4c3)CC2C1 (stereo not shown) [Compound 79] | > 10 | < 1 | < 1 | < 1 | < 0.1 |
| CN1CC2CN(c3cnc4ccc(-c5ccc6oc(N)nc6c5)nc4n3)CC2C1 (stereo not shown) [Compound 78] | > 10 | < 10 | < 1 | < 1 | < 0.1 |
| Nc1nc2cc(-c3ccc4ncc(N5C6CCC5COC6)nc4n3)ccc2o1 [Compound 19] | > 10 | < 0.1 | > 10 | > 10 | < 0.1 |
| CN1CCN(C2CN(c3ccc4ncc(-c5ccc6oc(N)nc6c5)cc4n3)C2)CC1 [Compound 84] |  | > 10 | > 10 | > 10 | < 10 |
| C[C@H]1CN(C2CN(c3cnc4ccc(-c5ccc6oc(N)nc6c5)nc4n3)C2)CCN1C [Compound 21] |  | > 10 | > 10 | < 10 | < 0.1 |
| C[C@H](N)C(=O)N1CCN(c2cnc3ccc(-c4ccc5oc(N)nc5c4)nc3c2)CC1 [Compound 38] |  | < 1 | < 1 | < 1 | < 0.1 |
| Nc1nc2cc(-c3ccc4ncc(N5CC(N6CCN(C7CC7)CC6)C5)nc4n3)ccc2o1 [Compound 69] |  | < 10 | < 10 | < 10 | < 0.1 |
| Nc1nc2cc(-c3ccc4ncc(N5CC(N6CCNCC6)C5)nc4n3)ccc2o1 [Compound 34] |  | > 10 | > 10 | > 10 | < 1 |
| Cc1nccn1C1CN(c2cnc3ccc(-c4ccc5oc(N)nc5c4)nc3c2)C1 [Compound 63] |  | < 0.1 | < 10 | < 1 | < 0.1 |
| C[C@@H]1CN(c2cnc3ccc(-c4ccc5oc(N)nc5c4)nc3c2)CCN1 [Compound 48] |  | < 10 | < 1 | < 10 | < 0.1 |
